Experimental data as given in patent publication US11479536B1 (King Abdulaziz University, priority 2022, dated 2022).
Where “and” joins values, the source holds several entries; their conditions need not be identical. Equal values may be shown once.

How the values were obtained:
T47D spheroids [1] = assay: Mitochondrial membrane potential assay (JC-1), T47D spheroids; type: cell-based, human; conditions: 48 h post treatment at IC50, control 15.67±2.05%
Procedure: (§1) The mitochondrial membrane potential was investigated in response to the treatment with MAK compounds. This assay depends on the measurement of the aggregate fluorescence for Tetraethylbenzimidazolylcarbocyanine iodide (JC-1). This cationic dye accumulates in the energized mitochondria, and the increase in aggregate fluorescence indicates mitochondrial […] while the reduction indicates the depolarization state.
(§2) After growing the cells and treating them with MAK compound for 48 hours, 2 μM of JC-1 final concentration was added and the mixture was incubated for 1 hour at 37° C. in presence of 5% CO2. Then, the samples were analyzed using flow cytometry. Mean values and standard deviation of replicates were calculated in comparison to the control group.

MCF7 spheroids [2] = assay: Live and dead assay of tumor spheroids, MCF7; type: cell-based, human; conditions: 48 h post treatment, control 10.33±2.40%
Procedure: (§3) The Live/Dead assay contains a mixture of two staining fluorescent dyes that label live and dead cells to enable differentiation between them. The cell viability of the cells in response to the treatment with MAK compounds was examined. The cells were grown for 48 hours and treated with MAK compound for additional 48 hours, then Cytox RED solution reagent was added. After incubation at 37° C. under 5% CO2 for 1 hour, the samples were immediately analyzed by flow cytometry. Mean values and standard deviation of replicates were calculated in comparison to the control group.

T47D spheroids [3] = assay: Cytotoxicity assay (MTT) in spheroid culture, T47D; type: cell-based, human
Procedure: (§4) 1×10^4 cells of each cell line (MCF7 and T47D) were seeded into ultra-low attachment 96 well plate at 37° C. and grown for 48 hours in DMEM media to result in the formation of spheroids. Then, the cells were subjected to the different treatment conditions before performing the assays.
(§5) The cytotoxic effects of MAK compounds were assessed against MCF7 and T47D cell lines using MTT cell viability assay. The cells were treated for 48 hours with different concentrations of each MAK compound and the control cells were subjected to the vehicle (0.1% DMSO). Then, 10% of 5 mg/mL MTT was added to each well containing treated or control cells, and mixture was incubated at 37° C. for 3 hours. After that, the MTT-containing media was replaced with 100 μL DMSO and incubated for 10 minutes at room temperature before measuring the absorbance for each well at 570 nm. According to the measured absorbance, the IC50 was calculated for each compound. All the experiments were performed in biological and experimental replicates.

[4] = system: human skin fibroblasts (HSF); assay: Cytotoxicity on human skin fibroblasts (SRB method); type: cell-based; conditions: HSF, SRB, 72 h
Procedure: In addition to have a good physicochemical profile, it is important for a studied lead to differentiate between cancer cells and highly proliferating non-cancerous cells. Therefore, we assessed compounds MAK-1 and MAK-6 for both the in silico and in vitro physicochemical characteristics as well as for cytotoxic effect on human skin fibroblasts (SKF) cell lines. Cytotoxicity was determined using Sulforhodamine B (SRB) method. Exponentially growing human skin fibroblast cells (Nawah Scientific, Cairo, Egypt) were collected using 0.25% Trypsin-EDTA and were then seeded in 96-well plates at a density of 1000-2000 cells/well in 10% FBS and penicillin/streptomycin supplemented RPMI-1640 medium. After 24 h, cells were treated with different concentrations of test compounds and incubated for 72 h at 37° C. in a humidified atmosphere containing 5% CO2. Next, the cells were fixed by adding trichloroacetic acid (TCA, 10% final conc. in wells) directly to the wells and incubated for 1 h at 4° C., then cells were washed with distilled water 5 times to remove excess TCA, media, serum proteins, and metabolites, followed by air drying. After that, the fixed cells were stained with 0.4% SRB dissolved in 1% acetic acid for 10 min at room temperature, and excess stain was removed by quickly rinsing with 1% acetic acid. The residual acetic acid was removed completely by air drying the plates for 24 h, and the dye was solubilized with Tris buffer (pH=7.4, 10 mM) for 5 min on a shaker at 1600 rpm. The optical density (OD) of each well was measured spectrophotometrically at 564 nm with an ELISA microplate reader (ChroMate-4300, FL, USA). The IC50 values were calculated according to the equation for Boltzman sigmoidal concentration—response curve using the nonlinear regression fitting models (Graph Pad, Prism Version 5).

MCF7 spheroids [5] = assay: Mitochondrial membrane potential assay (JC-1), MCF7 spheroids; type: cell-based, human; conditions: 48 h post treatment at IC50, control 18.01±0.58%
Procedure: as §1, §2

T47D spheroids [6] = assay: Reactive oxygen species (CellROX) assay, T47D spheroids; type: cell-based, human; conditions: 48 h treatment, CellROX Green
Procedure: (§6) The CELLROX (Invitrogen) assay was used to measure the level of reactive oxygen species (ROS) in live cells. […] The technique was used to investigate the capability of tested compounds to induce intracellular ROS. After forming the spheroids for 48 hours and treating them for additional 48 hours with MAK compound, spheroids were incubated in culture medium with 500 nM CellROX for 60 minutes at 37° C. in presence of 5% CO2, and the samples were immediately analyzed on flow cytometry using 488-nm excitation for the CellROX® Green.

MCF7 spheroids [7] = assay: Reactive oxygen species (CellROX) assay, MCF7 spheroids; type: cell-based, human; conditions: 48 h treatment, CellROX Green
Procedure: as §6

AMPK (A1/B1/G2) = molecular target: T1, AMPK (A1/B1/G2) (Homo sapiens, UniProt Q13131+Q9UGJ0+Q9Y478); assay: Cell-free AMPK inhibition assay, AMPK (A1/B1/G2) Kinase Enzyme system; type: biochemical; conditions: recombinant full-length human AMPK
T1 construct: This system includes a recombinant full-length human AMPK enzyme; purchased Promega
Procedure: The inhibitory effect of serial concentrations of MAK compounds on AMPK Kinase activity was investigated using the highly sensitive AMPK (A1/B1/G2) Kinase Enzyme assay system (Promega, Madison Wis. USA). This system includes a recombinant full-length human AMPK enzyme and a substrate for the enzyme. The experiment was conducted according to the manufacturer's instructions in the provided protocol. Mean values of replicates were calculated in comparison to the control group.

T47D cell line = assay: Cytotoxic assay (MTT) in monolayer model, T47D; type: cell-based; conditions: Homo sapiens, 48 h, read-out: IC50 cytotoxic assay against T47D, monolayer
Procedure: (§7) 1×10^6 cells of the human breast cancer cell lines MCF7 and T47D were seeded and grown at 37° C. with 5% CO2, in a Dulbecco's Modified Eagle Medium (DMEM) with 10% fetal bovine serum (Sigma). The cells were maintained until they reached the confluence over 90%. Then, the cells were subjected to the different treatment conditions before performing the assays.
as §5

T47D spheroids [8] = assay: Live and dead assay of tumor spheroids, T47D; type: cell-based, human; conditions: 48 h post treatment, control 2.60±0.31%
Procedure: as §3

MCF7 spheroids [9] = assay: Cytotoxicity assay (MTT) in spheroid culture, MCF7; type: cell-based, human
Procedure: as §4, §5

MCF7 cell line = assay: Cytotoxic assay (MTT) in monolayer model, MCF7; type: cell-based; conditions: Homo sapiens, 48 h, read-out: IC50 MCF-7 cell line inhibition, monolayer
Procedure: as §7, §5

AMPK (phospho-protein) = conditions: concentration not given; cited from earlier work
MCF7 cell lines = assay: Cytotoxic assays of KAC-12 on breast cancer MCF7 cell lines; type: cell-based, human

T1 sequence (Q13131 whole entry): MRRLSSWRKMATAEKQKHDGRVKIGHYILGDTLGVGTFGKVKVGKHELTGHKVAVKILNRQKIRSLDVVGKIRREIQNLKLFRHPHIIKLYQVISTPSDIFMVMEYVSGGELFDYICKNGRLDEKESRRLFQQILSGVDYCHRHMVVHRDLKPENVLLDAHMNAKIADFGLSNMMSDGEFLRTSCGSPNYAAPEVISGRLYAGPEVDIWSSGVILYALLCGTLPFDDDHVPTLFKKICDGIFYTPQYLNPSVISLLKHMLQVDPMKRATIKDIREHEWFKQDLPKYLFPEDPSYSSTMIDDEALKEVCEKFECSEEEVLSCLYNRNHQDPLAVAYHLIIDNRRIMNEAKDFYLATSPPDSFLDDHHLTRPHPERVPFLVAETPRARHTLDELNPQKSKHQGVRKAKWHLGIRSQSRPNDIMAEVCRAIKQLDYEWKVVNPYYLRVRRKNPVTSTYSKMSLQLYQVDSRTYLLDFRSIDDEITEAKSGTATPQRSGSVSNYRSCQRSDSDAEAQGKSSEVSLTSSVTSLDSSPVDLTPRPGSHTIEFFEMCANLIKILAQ
T1 sequence (Q9Y478 whole entry partner): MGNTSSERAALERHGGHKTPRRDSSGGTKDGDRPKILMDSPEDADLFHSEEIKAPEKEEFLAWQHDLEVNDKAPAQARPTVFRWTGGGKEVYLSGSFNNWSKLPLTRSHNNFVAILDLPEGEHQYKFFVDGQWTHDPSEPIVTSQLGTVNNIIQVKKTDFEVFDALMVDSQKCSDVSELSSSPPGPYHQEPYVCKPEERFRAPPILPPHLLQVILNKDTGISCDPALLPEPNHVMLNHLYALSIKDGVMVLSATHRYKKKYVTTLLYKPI
T1 sequence (Q9UGJ0 whole entry partner): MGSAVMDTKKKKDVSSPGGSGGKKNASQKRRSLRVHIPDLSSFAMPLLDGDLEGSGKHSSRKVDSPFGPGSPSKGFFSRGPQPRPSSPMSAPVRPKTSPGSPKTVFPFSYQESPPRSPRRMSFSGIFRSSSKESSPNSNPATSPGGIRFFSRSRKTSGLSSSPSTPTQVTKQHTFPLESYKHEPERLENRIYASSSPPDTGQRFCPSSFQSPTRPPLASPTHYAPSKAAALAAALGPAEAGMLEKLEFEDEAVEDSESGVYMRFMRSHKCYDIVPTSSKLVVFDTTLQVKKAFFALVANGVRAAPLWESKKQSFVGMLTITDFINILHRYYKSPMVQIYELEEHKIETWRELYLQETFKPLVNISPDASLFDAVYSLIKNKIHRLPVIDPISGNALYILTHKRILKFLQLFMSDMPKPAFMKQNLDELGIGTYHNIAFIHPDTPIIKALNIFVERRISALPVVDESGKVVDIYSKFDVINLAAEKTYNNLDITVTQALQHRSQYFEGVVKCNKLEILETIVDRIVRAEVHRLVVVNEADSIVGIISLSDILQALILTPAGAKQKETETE

For `COc1cccc(C(=O)Nc2cccnc2CC(=O)NCc2ccccc2)c1`, the “depolarized cells (mitochondrial membrane), mean±SEM” value (T47D spheroids [1]) was 36.77±0.65%, the “dead rate (dead cells), mean±SEM” value (MCF7 spheroids [2]) was 36.48±0.39% and the IC50 (T47D spheroids [3]; Homo sapiens, T47D, 3D spheroid model, 48 h, MTT) was 3.72 ± 0.03 µM. The “reduction of spheroid size” value (T47D spheroids [3]; T47D spheroids treated at IC50 for 48 h, vs control) was “noticeable reduction”, the “safety to normal cells (human skin fibroblasts)” value [4] was “highly safe” and the “depolarized cells (mitochondrial membrane), mean±SEM” value (MCF7 spheroids [5]) was 34.00±0.87%. The “ROS level, treatment vs control” value (T47D spheroids [6]) was 30%, the “ROS level, treatment vs control” value (MCF7 spheroids [7]) was 25% and the IC50 (AMPK (A1/B1/G2)) was 0.0058 µM. The IC50 (T47D cell line) was 0.097 µM, the “dead rate (dead cells), mean±SEM” value (T47D spheroids [8]) was 32.10±0.56% and the IC50 (MCF7 spheroids [9]; Homo sapiens, MCF7, 3D spheroid model, 48 h, MTT) was 19.6 ± 0.525 µM. The “reduction of spheroid size” value (MCF7 spheroids [9]; MCF7 spheroids treated at IC50 for 48 h, vs control) was “noticeable reduction” and the IC50 (MCF7 cell line) was 0.148 µM.
`O=C(Cc1ccc(NC(=O)c2ccc(Cl)o2)cc1)NCc1ccccc1` [MAK-10, N-(4-(2-(benzylamino)-2-oxoethyl)phenyl)-5-chlorofuran-2-carboxamide] gave a melting point of 217 °C and an IC50 (MCF7 cell line) of 0.225 µM.
Compound `COc1ccc(C(=O)Nc2ccc(CC(=O)NCc3ccccc3)cc2)cc1Cl` [MAK-4, N-(4-(2-(benzylamino)-2-oxoethyl)phenyl)-3-chloro-4-methoxybenzamide] has a melting point of 186 °C and an IC50 (MCF7 cell line) of 0.225 µM.
Compound `O=C(Cc1ccc(NC(=O)c2cccc(OCCN3CCOCC3)c2)cc1)NCc1ccccc1` [MAK-3, N-(4-(2-(benzylamino)-2-oxoethyl)phenyl)-3-(2-morpholinoethoxy)benzamide] has an IC50 (T47D cell line) of 0.001 µM.
For `O=C(Cc1ccc(NC(=O)c2cncc(Cl)c2)cc1)NCc1ccccc1` [MAK-9, N-(4-(2-(benzylamino)-2-oxoethyl)phenyl)-5-chloronicotinamide], the melting point was 231 °C.
In the case of `O=C(Cc1ccc(NC(=O)c2ccc(OCCN3CCOCC3)c(Cl)c2)cc1)NCc1ccccc1` [MAK-5, N-(4-(2-(benzylamino)-2-oxoethyl)phenyl)-3-chloro-4-(2-morpholinoethoxy)benzamide], the melting point is reported as 147 °C.
Work on `COc1ccc(C(=O)Nc2ccc(CC(=O)NCc3ccccc3)cc2)cc1OC` [MAK-2, N-(4-(2-(benzylamino)-2-oxoethyl)phenyl)-3,4-dimethoxybenzamide] yielded a melting point of 215 °C and an IC50 (MCF7 cell line) of 0.006 µM.
For `O=C(Cc1ccc(NC(=O)c2cccc(Cl)c2)cc1)NCc1ccccc1` [KAC-12], the “downregulation of the activated AMPK signal (phosphoprotein)” value (AMPK (phospho-protein)) is listed as 15% and 13% and the IC50 (MCF7 cell lines) is listed as 47.7 µM.
